Holding throughout (assay): growth of human tumour cells (NCI), 48 h
The subject of test [1] is CAKI-1 renal.
For test [2], the system named is HCT-116 colon.
In test [3] the test system is MDA-N.
The test system of test [4] is MCF7 breast.
In test [5] the test system is CCRF-CEM leukemia.
The subject of test [6] is UO-31 renal.
Test [7] has as its system IGROV1 ovarian.
Test [8] concerns OVCAR-5 ovarian.
For test [9], the system named is PC-3 prostate.
The test system of test [10] is NCI-H460 lung.
Test [11] concerns OVCAR-4 ovarian.
Test [12] has as its system U251 CNS.
Test [13] concerns SK-MEL-2 melanoma.
In test [14] the test system is RXF 393 renal.
Test [15] has as its system HL-60(TB) leukemia.
Test [16] has as its system OVCAR-8 ovarian.
For test [17], the system named is SN12C renal.
In test [18] the test system is SW-620 colon.

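The compound was tested at five concentrations on cells cultured in 96-well plates, with a 48-hour exposure period. The concentration for full growth arrest is given as TGI.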 Some results are limits rather than exact numbers.

For the molecule `CNC(=O)N(CCC#N)CCN(C(=O)N(C)C)c1ccccc1`, the TGI in test [1], in test [2], in test [3], in test [4], in test [5] and in test [6] was > 100 µM each time. The TGI in [7], in [8], in test [9], in test [10], in [11] and in test [12] was > 100 µM throughout. Further, the TGI in test [13], in test [14], in test [15], in test [16], in test [17] and in [18] was > 100 µM throughout.
On to `CC(=O)c1c(SCCN2CCOCC2)n(-c2ccccc2)c(=S)n(-c2ccccc2)c1=O`, for which the TGI in [1] is > 52.3 µM; in test [2], 30.5 µM; in test [3], 47.9 µM; in test [4] it was 5.31 µM; in test [5], 32.5 µM; in test [6], 27.1 µM. Moreover, the TGI is 34.6 µM in test [7]; > 100 µM in test [8]; 32 µM in test [9]; 60.7 µM in test [10]; > 68.9 µM in test [11]; > 57 µM in test [12]. Besides, the TGI came out at 39.4 µM in test [13]; 25.7 µM in test [14]; 51.9 µM in [15]; 39.5 µM in [16]; 34.4 µM in test [17]; 49.9 µM in test [18].

These data come from PubChem BioAssay (NCI).
